Experimental findings from article PMC4373826, “Antiviral Effect of Methylated Flavonol Isorhamnetin against Influenza” (PLoS ONE, 2015) are described below.

Data set [1] is described as follows: Cytotoxicity assay (EZ-Cytox) in MDCK cells. In kind it is cell-based, canine. The conditions noted are these: dog; MDCK cells, 48 hr. The method, then:
(§1) To determine the 50% cytotoxic concentration (CC50) for each of the tested flavonoid compounds, MDCK cells were seeded onto 96-well plates (NUNC, Penfield, NY, USA) at a density of 1 × 10^4 cells per well and incubated overnight for 80% confluence. MDCK cells were washed twice with PBS and the culture medium was replaced with medium containing serially diluted flavonoids (concentrations from 10μM up to 300 μM) for 48 hr at 37°C in a 5% CO2atmosphere. After the incubation period, the flavonoid-containing media was replaced with new media containing 10% EZ-Cytox (Daeil Lab Service, Seoul, South Korea), and the cells were incubated in the dark for 3 hr at 37°C in a 5% CO2 atmosphere. The optical density was measured at 480 nm using an x-Mark spectrophotometer (Bio-Rad, Hercules, CA, USA). Cytotoxicity was estimated by comparing the cell survival rate of the flavonoids-treated cells and the DMSO-treated cells with the control (virus-untreated) cells. The control cell values were arbitrarily set as the 100% survival rate. The treated cells values were normalized to the control cell values. The calculation of CC50 was carried out as described in detail in S1 Text.
(§2) The 50% cytotoxic concentration (CC50) was calculated according to the following equation:
(§3) Cytotoxicity (%) = [100-(ODt/ODs)] x100
(§4) ODt: The optical density (OD) of cells treated with the tested flavonoids.
(§5) ODs: The OD of cells treated with the control solvent (0.2 % DMSO).
(§6) After obtaining the results, we calculated the concentration that induces 50% cell death using the following equation:
(§7) (X2 - X1) X (50-Y1) / (Y2 - Y1) + X1. Where, X1 represents the lower concentration used in this experiment, while X2 represents the higher concentration. Y1 represents the mean of the percentage of the viable cells at X1 concentration. On the other hand, Y2 represents the mean of the percentage of the viable cells at X2 concentration.”

The test system of data set [2] is influenza A/PR/8/34 (H1N1). In kind it is cell-based, influenza A virus. The settings on record: post-treatment 48 hr.
The subject of data set [3] is influenza A/PR/8/34 (H1N1). The conditions noted are these: post-treatment.
Data set [4] has as its system influenza A/PR/8/34 (H1N1). As to the kind of experiment: in vitro. The settings on record: dog, SI (selective index, CC50/EC50), Post-treatment.
For data set [5], the system named is influenza A/PR/8/34 (H1N1). Put plainly: microbe, parasite or virus in culture. The settings on record: MDCK.
For data set [6], the system named is MDCK cells. Put plainly: Cytotoxicity assay (EZ-Cytox) in MDCK cells. In kind it is cell-based, canine. The settings on record: especially at 50μM and 100μM. The method, then:
as §1, §2, §3, §4, §5, §6, §7

For the molecule `O=c1c(O)c(-c2ccc(O)cc2)oc2cc(O)cc(O)c12` [Kaempferol, kaempferol], the CC50 at 48 h in data set [1] was 245 µM. In addition, in data set [2], the “virus titer in HA assay (virus yield reduction)” value is listed as “significantly decreased”. Besides, the “influenza virus-induced cell death” value in data set [3] is listed as “apparent suppression”. For the same molecule, in data set [4], the selectivity ratio is 7. The molecule also had an EC50 in data set [5] (48 h, Post-treatment) of 35 µM.

On to `O=c1c(O)c(-c2ccc(O)c(O)c2)oc2cc(O)cc(O)c12` [Quercetin, quercetin], for which the CC50 at 48 h in data set [1] is over 265 µM. In addition, the “virus titer in HA assay (virus yield reduction)” value in data set [2] is “significantly decreased”. In data set [3], the “influenza virus-induced cell death” value was “apparent suppression”. For the same molecule, the selectivity ratio in data set [4] is over 9. Besides, the EC50 amounted to 106 µM in data set [5] (0.5 h, Co-treatment (0.5 hr)); 62 µM in data set [5] (1 h, Co-treatment (1 hr)); 43 µM in data set [5] (2 h, Co-treatment (2 hr)); 30 µM in data set [5] (48 h, Post-treatment); 78 µM in data set [5] (Pre-treatment (1 hr)); 85 µM in data set [5] (Pre-treatment (12 hr)). In addition, in data set [5] (Pre-treatment (24 hr)), the 50% effective concentration (EC50) was 98 µM.

As to `COc1ccc(-c2cc(=O)c3c(O)cc(O)cc3o2)cc1O` [Diosmetin, diosmetin], in data set [5] (48 h, Post-treatment), the EC50 worked out at 124 µM.

Regarding `O=C1C[C@@H](c2ccc(O)c(O)c2)Oc2cc(O)cc(O)c21` [Eriodictyol, eriodictyol], half-maximal cytotoxicity in data set [1] (CC50 at 48 h) was put at 256 µM. Also, in data set [6], the “cell viability of MDCK cells” value is recorded as “significant decrease”. In addition, the selectivity ratio in data set [4] was determined as 2. The EC50 in data set [5] (48 h, Post-treatment) was found to be 115 µM.
